Tests used:
Format in all cases: in vivo
wheat = test: Foliar treatment test (3) post emergence application, crop injury; conditions: 3.0 to 4.0-leaf stage, 0.125% X-77, 21st day, index
Description: (§1) Volcanic ash soil from a field was put in a resin-made pot having an area of 200 cm^2. After fertilization, the seeds of Galim spurium, Brassica juncea, and wheat were cast on the soil and covered with the soil uniformly. Cultivation was continued in a greenhouse until the plants reached to the 3.0 to 4.0-leaf stage.
(§2) The emulsifiable concentrate comprising compound No. 5 of the present invention, comparative compound (B) or comparative compound (C) as an active ingredient which was prepared in accordance with Formulation Example 3 was diluted with water containing 0.125% of a spreading agent X-77 (trade name, Valent USA Co.) so that a spray of 250 L/ha might give a prescribed amount of the active ingredient. The diluted composition was uniformly sprayed to the Galium spurium plant, the Brassica juncea plant, and the wheat plant by means of a small-sized power pressure spray.
(§3) Thereafter, cultivation was continued in the greenhouse, and the herbicidal effect and the injury to the crop were examined on the 21st day from the treatment. The herbicidal effect and the injury to the crop were evaluated on the same criteria as in Test Example 4.

Brassica juncea [1] = test: Foliar treatment test (3) post emergence application; conditions: 3.0 to 4.0-leaf stage, 0.125% X-77, 21st day, index
Description: as §1, §2, §3

Galium spurium = test: as above; conditions: 3.0 to 4.0-leaf stage, 0.125% X-77, 21st day, index
Description: as §1, §2, §3

Brassica juncea [2] = test: Foliar treatment test (1) post-emergence application; conditions: foliar treatment post-emergence at 1.0- to 2.0-leaf stage, 10 g/a active ingredient, 21st day from treatment; herbicidal index; note: ranges in brackets are in %
Description: (§4) Volcanic ash soil from a field was put in a resin-made pot having an area of 200 cm^2. After fertilization, the seeds of Brassica juncea, Ipomoea purpurea, Echinochloa crus-galli and Alopeculus aequalis were cast on the soil and uniformly covered with the soil.
(§5) Cultivation was continued in a greenhouse, and when the weeds reached the 1.0- to 2.0-leaf stage, a prescribed amount of the emulsifiable concentrate comprising the compound of the invention as an active ingredient which was prepared in Formulation Example 3 as diluted with water was sprayed uniformly to the weeds by means of a small-sized power pressure spray to give 10 g of the active ingredient per are.
(§6) Thereafter, cultivation was further continued in the greenhouse, and the herbicidal effect was examined on the 21st day from the treatment. The results obtained are shown in Table 6 (the compound numbers in Table 6 correspond to those in Tables 1 and 2). The herbicidal effect was evaluated based on the same criteria as in Test Example 1.

Alopeculus aequalis = test: as above; conditions: foliar treatment post-emergence at 1.0- to 2.0-leaf stage, 10 g/a active ingredient, 21st day from treatment; herbicidal index; note: ranges in brackets are in %
Description: as §4, §5, §6

Echinochloa crus-galli = test: as above; conditions: foliar treatment post-emergence at 1.0- to 2.0-leaf stage, 10 g/a active ingredient, 21st day from treatment; herbicidal index; note: ranges in brackets are in %
Description: as §4, §5, §6

Ipomoea purpurea = test: as above; conditions: foliar treatment post-emergence at 1.0- to 2.0-leaf stage, 10 g/a active ingredient, 21st day from treatment; herbicidal index; note: ranges in brackets are in %
Description: as §4, §5, §6

Digitaria ciliaris = test: Soil treatment test pre-emergence application; conditions: 10 g/a active ingredient, 28th day from treatment, herbicidal index; note: ranges in brackets are in %
Description: (§7) Volcanic ash soil from a field was put in a resin-made pot having an area of 200 cm^2. After fertilization, soil previously mixed uniformly with the seeds of Digitaria ciliaris, Setaria viridis, Chenopodium album and Polygonum lapathifolium was scattered on the soil. The emulsifiable concentrate comprising the compound of the invention as an active ingredient which was obtained in Formulation Example 3 was diluted with water, and a prescribed amount of the diluted composition was sprayed uniformly to the surface of the soil by means of a small-sized power pressure spray to give 10 g of the active ingredient per are.
as §6, with “was” for “was further”, “in a” for “in the”, “the 28th” for “the 21st”, “Table 5” for “Table 6”

Setaria viridis = test: Soil treatment test pre-emergence application; conditions: 10 g/a active ingredient, 28th day from treatment, herbicidal index; note: ranges in brackets are in %
Description: as §7
as §6, with “was” for “was further”, “in a” for “in the”, “the 28th” for “the 21st”, “Table 5” for “Table 6”

Chenopodium album = test: Soil treatment test pre-emergence application; conditions: 10 g/a active ingredient, 28th day from treatment, herbicidal index; note: ranges in brackets are in %
Description: as §7
as §6, with “was” for “was further”, “in a” for “in the”, “the 28th” for “the 21st”, “Table 5” for “Table 6”

Polygonum lapathifolium = test: Soil treatment test pre-emergence application; conditions: 10 g/a active ingredient, 28th day from treatment, herbicidal index; note: ranges in brackets are in %
Description: as §7
as §6, with “was” for “was further”, “in a” for “in the”, “the 28th” for “the 21st”, “Table 5” for “Table 6”

Structure (SMILES) | Crop Injury Wheat (wheat; 12.5 ga.i./ha) | Crop Injury Wheat (wheat; 25.0 ga.i./ha) | Crop Injury Wheat (wheat; 50.0 ga.i./ha) | Herbicidal Effect Brassica juncea (Brassica juncea [1]; 12.5 ga.i./ha) | Herbicidal Effect Brassica juncea (Brassica juncea [1]; 25.0 ga.i./ha) | Herbicidal Effect Brassica juncea (Brassica juncea [1]; 50.0 ga.i./ha) | Herbicidal Effect Galium spurium (Galium spurium; 12.5 ga.i./ha) | Herbicidal Effect Galium spurium (Galium spurium; 25.0 ga.i./ha) | Herbicidal Effect Galium spurium (Galium spurium; 50.0 ga.i./ha) | Herbicidal Effect Brassica juncea (Brassica juncea [2]) | Herbicidal Effect Alopeculus sequalis (Alopeculus aequalis) | Herbicidal Effect Echinochloa crus-galli (Echinochloa crus-galli) | Herbicidal Effect Ipompoea-purpurea (Ipomoea purpurea) | Herbicidal Effect Digitaria ciliaris (Digitaria ciliaris) | Herbicidal Effect Setaria viridis (Setaria viridis) | Herbicidal Effect Chenopodium album (Chenopodium album) | Herbicidal Effect Polygonum lapathifolium (Polygonum lapathifolium)
CCO/N=C(/COc1cc(N2C(=O)c3ccccc3C2=O)c(F)cc1Cl)C(=O)OCC [Comparative Compound (B)] | 3 (20-29) | 3 (20-29) | 4 (30-39) | 9 (90-99) | 10 (100) | 10 (100) | 9 (90-99) | 9 (90-99) | 10 (100) |  |  |  |  |  |  |  | 
CCOC(=O)C(Cl)Cc1cc(-n2nc(C)n(C(F)F)c2=O)c(F)cc1Cl (stereo not drawn) [Comparative Compound (C), Carfentrazone-ethyl] | 3 (20-29) | 4 (30-39) | 6 (60-69) | 9 (90-99) | 10 (100) | 10 (100) | 10 (100) | 10 (100) | 10 (100) |  |  |  |  |  |  |  | 
COC(=O)C(Cl)Cc1cc(N2C(=O)c3ccccc3C2=O)ccc1Cl (stereo not drawn) [Compound 1] |  |  |  |  |  |  |  |  |  | 5 (91-100) | 1 (6-30) | 1 (6-30) | 5 (91-100) |  |  |  | 
COC(=O)C(Cl)Cc1cc(N2C(=O)c3ccc(F)cc3C2=O)ccc1Cl (stereo not drawn) [Compound 2] |  |  |  |  |  |  |  |  |  | 5 (91-100) | 1 (6-30) | 2 (31-50) | 5 (91-100) |  |  |  | 
O=C(O)C(Cl)Cc1cc(N2C(=O)c3ccccc3C2=O)c(F)cc1Cl (stereo not drawn) [Compound 3, 2-Chloro-3-(2-chloro-4-fluoro-5-pthalimidophenyl)propionic Acid] |  |  |  |  |  |  |  |  |  | 5 (91-100) | 1 (6-30) | 1 (6-30) | 5 (91-100) | 0 (0-5) | 0 (0-5) | 5 (91-100) | 5 (91-100)
COC(=O)C(Cl)Cc1cc(N2C(=O)c3ccccc3C2=O)c(F)cc1Cl (stereo not drawn) [Compound 4, Methyl 2-Chloro-3-(2-chloro-4-fluoro-5-phthalimidophenyl)propionate] |  |  |  |  |  |  |  |  |  | 5 (91-100) | 1 (6-30) | 2 (31-50) | 5 (91-100) | 0 (0-5) | 0 (0-5) | 5 (91-100) | 5 (91-100)

Source: patent US6365753B1, “Phthalimides and herbicide containing the same as active component” (Mitsubishi Chemical Corporation, priority 1998, dated 2002)
